Laboratory results published in patent US11149008B2, “Sulfamide derivatives and preparation method and use thereof” (HitGen Ltd., priority 2015, dated 2021).

Assays:
[1] = molecular target: T1, HDAC 6 (Homo sapiens, UniProt Q9UBN7); test: Enzyme activity detection of histone deacetylase 6 (fluorogenic substrate deacetylation); assay type: biochemical; conditions: 0.35 ng/μL HDAC 6, 20 μM substrate, 30 min at 37° C.; IC50 class
T1 construct: purchased BPS Bioscience #50076
T1 sequence (Q9UBN7 1-1215): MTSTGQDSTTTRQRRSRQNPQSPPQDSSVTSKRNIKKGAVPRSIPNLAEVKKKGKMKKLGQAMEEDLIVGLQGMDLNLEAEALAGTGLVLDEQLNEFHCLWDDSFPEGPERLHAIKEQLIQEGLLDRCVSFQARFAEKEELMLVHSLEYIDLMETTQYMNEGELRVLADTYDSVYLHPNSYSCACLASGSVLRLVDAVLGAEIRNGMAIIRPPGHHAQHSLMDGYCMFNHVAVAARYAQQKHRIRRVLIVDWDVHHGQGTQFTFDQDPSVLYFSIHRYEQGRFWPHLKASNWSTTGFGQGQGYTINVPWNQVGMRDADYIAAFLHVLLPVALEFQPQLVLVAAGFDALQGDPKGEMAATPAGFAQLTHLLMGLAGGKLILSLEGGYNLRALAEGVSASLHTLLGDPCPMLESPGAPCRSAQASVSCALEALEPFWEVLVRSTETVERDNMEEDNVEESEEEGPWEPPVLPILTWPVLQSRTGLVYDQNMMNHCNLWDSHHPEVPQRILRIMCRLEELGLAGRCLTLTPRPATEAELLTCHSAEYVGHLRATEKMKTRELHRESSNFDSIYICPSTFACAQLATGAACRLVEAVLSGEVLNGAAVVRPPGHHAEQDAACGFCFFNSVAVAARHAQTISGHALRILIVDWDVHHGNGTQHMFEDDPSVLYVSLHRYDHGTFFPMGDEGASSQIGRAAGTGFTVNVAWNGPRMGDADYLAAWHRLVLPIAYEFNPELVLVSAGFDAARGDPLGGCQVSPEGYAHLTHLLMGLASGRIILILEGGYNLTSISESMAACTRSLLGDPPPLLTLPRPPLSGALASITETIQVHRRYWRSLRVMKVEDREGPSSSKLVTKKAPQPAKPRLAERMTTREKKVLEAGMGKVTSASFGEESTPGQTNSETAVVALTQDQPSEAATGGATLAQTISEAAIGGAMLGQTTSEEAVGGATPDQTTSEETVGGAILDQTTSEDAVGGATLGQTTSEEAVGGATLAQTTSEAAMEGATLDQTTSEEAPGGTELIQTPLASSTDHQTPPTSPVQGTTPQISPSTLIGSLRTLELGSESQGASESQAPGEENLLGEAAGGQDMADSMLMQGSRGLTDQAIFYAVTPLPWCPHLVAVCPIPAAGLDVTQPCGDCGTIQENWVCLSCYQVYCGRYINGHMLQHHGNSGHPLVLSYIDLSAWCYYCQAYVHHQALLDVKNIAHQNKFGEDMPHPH
From the text: During the deacetylation detection of a substrate, the HDAC inhibition activity of the compound of the present invention was detected.
A: Enzyme Activity Detection of Histone Deacetylase 6 (#50076, BPS Bioscience)
Acetyl on the substrate was removed by the HDAC 6, so that the substrate was activated, and the developing liquid added subsequently could act on the substrate to release the fluorescent group. The size of the fluorescence signal reflected the activity of the HDAC 6. The IC50 detection method for this enzyme was disclosed in Chuping Xu, Elisabetta Soragni Improved Histone Deacetylase Inhibitors as Therapeutics for the Neurdegenerative Disease Friedreich's Ataxia: A New Synthetic Route. The total reaction system (100 μL/well) contained 0.35 ng/μL of HDAC 6, 20 μM of the substrate and the compound in different concentrations. The reaction system was incubated for 30 min at 37° C., and the fluorescence signal was then measured. The inhibition effect of the compound was determined from the obtained data, a concentration response curve was obtained by using the inhibition effect and the concentration of the compound, and the value of IC50 was fitted according to a four-parameter model.
The activities of the compounds prepared in the embodiments against the histone deacetylases 1, 3 and 6 (i.e., HDAC 1, HDAC 3 and HDAC 6) were detected by the above methods, and the test results were shown in Table 2, where the measurements of IC50 of the compounds were classified according to the following description: […]

[2] = tested on: HepG2 cells; test: Cell growth inhibition measurement (CCK-8), HepG2; assay type: cell-based; conditions: Homo sapiens, HepG2, 72 h, highest EC50 measured during one or multiple operations, read-out: Inhibition activity against cancer cells, HepG2 (EC50)
From the text: A HepG2 cell strain and an HCT-116 cell strain were purchased from Shanghai Institutes for Biological Sciences; a DMEM high-sugar culture medium and an MEM culture medium were purchased from Hyclone; fetal calf serum was purchased from Gibco; trypsin was purchased from Invitrogen Shanghai; a CCK-8 kit was purchased from Beyotime Institute of Biotechnology; and, the remaining cell culture mediums and other consumables were purchased from Corning China.
HepG2 cells and HCT-116 cells in the logarithmic growth phase were digested by trypsin. After the counting of uniform cell suspension, the cell density was adjusted as 1500 cells/well by a culture medium containing 10% serum. The cells were re-inoculated to a 96-well cell culture plate, and cultured to a volume of 200 μL at 37° C. in an incubator containing 5% CO2. The cells could be tested after being cultured for 24 h.
The cells cultured for 24 h were taken out from the incubator. The culture liquid in the well plate was sucked out, and 200 μL of compound solution prepared in the culture medium containing 10% fetal calf serum was added in each well. Five parallel mediums were provided for each concentration, and a DMSO culture medium was used as negative control. The culture mediums were cultured for 72 h at 37° C. in an incubator containing 5% CO2, and CCK-8 detection was performed.
A serum-free culture medium and CCK-8 solution were prepared, and CCK-8 working solution was prepared at a ratio of 10:1 (this process should be performed in dark place).
The cells cultured for 72 h were taken out from the incubator. The culture liquid in the well plate was sucked out, and 120 μL of the CCK-8 working solution was added in each well. A well plate without cells was also added with 120 μL of the CCK-8 working solution to serve as blank control. The well plates were cultured for 1 h at 37° C. in an incubator containing 5% CO2 (this process should be performed in dark place).
The well plates were taken out from the incubator, 100 μL of solution in each well was sucked out and added in a new 96-well plate, and the absorbance was measured at 450 nm (this process should be performed in dark place).
where Tx is the absorbance of the CCK-8 after the compound acts for 72 h;
C is the absorbance of the CCK-8 after the negative control wells are cultured for 72 h; and
B is the absorbance of the CCK-8 in the blank control wells.
The test results of the compounds prepared according to the embodiments during the measurement are shown in Table 3, wherein the measured highest EC50 of the compounds during one operation or multiple operations is classified according to the following description: […]

Compound: CN1CCN(c2ccc(-c3ccc(S(=O)(=O)N4CC=C(C(=O)NO)CC4)cc3)cc2)CC1 [Compound 29, N-hydroxyl-1-((4′-(4-methylpiperazinyl)-[1,1′-biphenyl]-4-yl)sulfonyl)-1,2,3,6-tetrahydropyridine-4-formamide]
- IC50 [1]: < 0.1 µM
- EC50 [2]: < 0.1 µM
